Marks after values point to notes of the source that are not given here.
How the values were obtained:
Type in all cases: cell-based, human
[1] = tested on: osteopontin; test: Western blot of osteopontin expression after exposure to ASOs; conditions: MDA-MB231, lipofectamine, 10 μM
[2] = tested on: osteonectin; test: Western blot of osteonectin expression after exposure to ASOs; conditions: for osteonectin expression in relation to untreated control (100%): single exposure, lipofectamine, 10 μM
[3] = tested on: MDA-MB-231 breast cancer cells; test: Clonogenicity assay (colony formation); conditions: for % Control / Mean colony no.: Experiment II, single treatment; for Mean colony no.: control 705; for inhibition of colony formation (colony growth inhibition): single exposure
Protocol: For determining the response of MDA-MB-231 colony formation to exposure with antisense oligonucleotides and erucylphospho-NNN-trimethylpropanolamine (ErPC3) the following procedure was used. MDA-MB-231 cells were treated for various periods of time (see below), harvested and counted. Cells (5000) were then transferred into semi-solid medium containing 0.8t RPMI-methylcellulose and 30% FBS. Cells were plated onto 3.5 cm Petri-dishes (1 ml/dish) (NUNC, Wiesbaden, Germany) and usual cell culture conditions (37° C., 5% CO2 in humidified air) were applied. Colony formation (clusters of 30 or more cells) was visualized by staining with 3-[4,5-dimethylthiazol-2-yl]-2,5-diphenyltetrazolium-bromide (MTT; Serva, Heidelberg, Germany) and the resulting dark blue colonies were scored by an inverted microscope after 5-7 days. At least three dishes per treatment protocol were used.
Pending on the duration of treatment, 1×10^5-3×10^5 cells were transferred onto 6 well plates (Nunc, Wiesbaden, Germany) and grown for 24 h. For transfection, ASO stock solutions were prepared in medium without FBS. According to the protocol of the manufacturer, the respective ASO stock solution was mixed with lipofectamine to allow ASO-liposome complexes to form. To 200 μl medium containing ASO quantities resulting in 10 μM (Western blot and in vivo model) and in 5, 10, or 20 μM (clonogenicity assay) final ASO-concentrations, an equal volume of medium without FBS was added containing 5, 10, or 20 μl lipofectamine, respectively. In addition to the ASO treatment, a NSO control (20 μM final concentration with 20 μl lipofectamine) and a lipofectamine control (20 μl) were used. […] After 12 h the medium was changed, and cells were further grown for 48-72 h. In the case of a sequential combination treatment this first cycle was repeated with the respective combination partner.
The alkylphosphocholine ErPC3 was synthesized and provided by Prof. H. Eibl (MPI of Biophysical Chemistry, Göttingen, FRG). For treating MDA-MB-231 cells, ErPC3 which was kept as stock solution in ethanol and PBS (10 mM; ratio of diluents 1:1; V:V), was diluted in PBS resulting in final concentrations of 10, 14, and 20 μM. The medium containing ErPC3 was changed after 24 h in all experiments and the cells were further grown for 48-72 h without ErPC3 (for details of sequential exposure see below).
Sequential combination treatment consisted of two or three treatment cycles. The two cycle treatment started either with the ASO and was followed by ErPC3 or was performed with the reverse sequence. The three cycle treatment started either with two cycles of ASO followed by ErPC3 or an initial exposure to ErPC3 was followed by two cycles with an ASO.
Colony counts are presented as mean with corresponding standard deviation. For comparison of incidences between treatment groups the x^2 test was used and for comparison of the lesion sizes the Kruskal-Wallis test was applied. P values≦0.05 were considered significant. Predicted theoretical values of combinations were calculated according to the equation: C=a×b/100, where a and b are colony counts in percent of untreated control obtained in response to single agents. For each concentration applied theoretical values were calculated and compared with the real value of the combination. In addition, isobologram and multiple drug effect analysis was examined by a suitable program (CalcuSyn, Biosoft, Ferguson, USA) to study the nature of the interaction observed. For this purpose, the dose-effect curve for each drug alone was determined based on the experimental observations using the median-effect principle; the combination index (CI) for each combination was then calculated according to the following equation:
CI=(D)1/(Dx)1+(D)2/(Dx)2+(D1)×(D2)/(Dx)1×(Dx)2
where (D)1 and (D)2 are the doses of drug 1 and drug 2 that have x effect when used in combination and (Dx)1 and (Dx)2 are the doses of drug 1 and drug 2 that have the same x effect when used alone. […]

[4] = MDA-MB231^F (growing without FBS)

5′-ACACTAACTTAAAAAACAAA-3′ (antisense ACACTAACTTAAAAAACAAA; all phosphorothioate, sugars by position and methylation of C not given here) [ASO-OPN-5]
osteopontin expression in relation to untreated control (100%) ([1]; single exposure): 43%
osteopontin expression in relation to untreated control (100%) ([1]; twofold exposure): 80%

5′-ATGTGGCCACAGCATCTGGG-3′ (antisense ATGTGGCCACAGCATCTGGG; all phosphorothioate, sugars by position and methylation of C not given here) [ASO-OPN-8]
osteopontin expression in relation to untreated control (100%) ([1]; single exposure): 48%
osteopontin expression in relation to untreated control (100%) ([1]; twofold exposure): 97%

5′-CAAACATTTTAAACATTGGG-3′ (antisense CAAACATTTTAAACATTGGG; all phosphorothioate, sugars by position and methylation of C not given here) [ASO-ON-9]
osteonectin expression in relation to untreated control (100%) ([2]; MDA-MB231): 37%
osteonectin expression in relation to untreated control (100%) [2, 4]: 21%
osteonectin expression in relation to untreated control (100%) ([2]; MDA-MB435s): 49%

5′-CCATCATCAAATTCTCCTAC-3′ (antisense CCATCATCAAATTCTCCTAC; all phosphorothioate, sugars by position and methylation of C not given here) [ASO-ON-2]
osteonectin expression in relation to untreated control (100%) ([2]; MDA-MB231): 61%
osteonectin expression in relation to untreated control (100%) [2, 4]: 17%
osteonectin expression in relation to untreated control (100%) ([2]; MDA-MB435s): 64%

5′-CTCATGGTAGTGAGTTTTCC-3′ (antisense CTCATGGTAGTGAGTTTTCC; all phosphorothioate, sugars by position and methylation of C not given here) [ASO-OPN-1]
osteopontin expression in relation to untreated control (100%) ([1]; single exposure): 25^2)3) %
osteopontin expression in relation to untreated control (100%) ([1]; twofold exposure): 34^2)3) %

5′-GAATCCGGTACTGTGGAAGG-3′ (antisense GAATCCGGTACTGTGGAAGG; all phosphorothioate, sugars by position and methylation of C not given here) [ASO-ON-8]
osteonectin expression in relation to untreated control (100%) ([2]; MDA-MB231): 54%
osteonectin expression in relation to untreated control (100%) [2, 4]: 38%
osteonectin expression in relation to untreated control (100%) ([2]; MDA-MB435s): 46%

5′-GGGGGCTGGGCAGCTGGTGG-3′ (antisense GGGGGCTGGGCAGCTGGTGG; all phosphorothioate, sugars by position and methylation of C not given here) [ASO-ON-3]
% Control ([3]; 5 μM): 92%
Mean colony no. ([3]; 5 μM): 648^6)
% Control ([3]; 10 μM): 82%
Mean colony no. ([3]; 10 μM): 576^7)
% Control ([3]; 20 μM): 73%
Mean colony no. ([3]; 20 μM): 514
inhibition of colony formation (colony growth inhibition) ([3]; 5 μM): 8%
inhibition of colony formation (colony growth inhibition) ([3]; 10 μM): 14%
inhibition of colony formation (colony growth inhibition) ([3]; 20 μM): 27%
inhibition of colony formation (colony growth inhibition) ([3]; 20 μM, listed as ASO-ON-03, 20 µM): 21%
osteonectin expression in relation to untreated control (100%) ([2]; MDA-MB231): 25%
osteonectin expression in relation to untreated control (100%) [2, 4]: 22%
osteonectin expression in relation to untreated control (100%) ([2]; MDA-MB435s): 29%
decrease of osteonectin ([2]; MDA-MB-231 cells): 75%
maximum inhibition of protein expression / suppression of protein level (ON) ([2]; MDA-MB-231 cells, Western blot): 75%

5′-GGTCTGCGAAACTTCTTAGA-3′ [ASO-OPN-9]
osteopontin expression in relation to untreated control (100%) ([1]; twofold exposure): 74%

5′-GTGGCCACAGCATCTGGGTA-3′ [ASO-OPN-6] (antisense GTGGCCACAGCATCTGGGTA; all phosphorothioate, sugars by position and methylation of C not given here)
osteopontin expression in relation to untreated control (100%) ([1]; single exposure): 45%
osteopontin expression in relation to untreated control (100%) ([1]; twofold exposure): 68%

5′-GTGGCCACAGCATCTGGGTA-3′ [ASO-OPN-7] (antisense GTGGCCACAGCATCTGGGTA; all phosphorothioate, sugars by position and methylation of C not given here)
osteopontin expression in relation to untreated control (100%) ([1]; single exposure): 31%
osteopontin expression in relation to untreated control (100%) ([1]; twofold exposure): 69%

5′-GTTCAGGTCCTGGGCAACGG-3 (antisense GTTCAGGTCCTGGGCAACGG; all phosphorothioate, sugars by position and methylation of C not given here) [ASO-OPN-3]
osteopontin expression in relation to untreated control (100%) ([1]; single exposure): 32%
osteopontin expression in relation to untreated control (100%) ([1]; twofold exposure): 38%

5′-TCAGGTCTGCGAAACTTCTT-3′ [ASO-OPN-10]
osteopontin expression in relation to untreated control (100%) ([1]; twofold exposure): 86%

5′-TTCAGGTCCTGGGCAACGGG-3′ [ASO-OPN-2]
osteopontin expression in relation to untreated control (100%) ([1]; single exposure): 45%
osteopontin expression in relation to untreated control (100%) ([1]; twofold exposure): 60%

5′-TTGAAGTTTCTCTTGATTAA-3′ (antisense TTGAAGTTTCTCTTGATTAA; all phosphorothioate, sugars by position and methylation of C not given here) [ASO-ON-10]
osteonectin expression in relation to untreated control (100%) ([2]; MDA-MB231): 46%
osteonectin expression in relation to untreated control (100%) [2, 4]: 35%
osteonectin expression in relation to untreated control (100%) ([2]; MDA-MB435s): 46%

— patent US20090017103A1, “Antisense oligonucleotides for prevention of metastasis formation of cancer cells” (priority 2003, published 2009)
